In patent US7670991B2, “Substituted benzoylcyclohexenones and their use as herbicidal agents” (Bayer CropScience AG, priority 2001, dated 2010):

Assay: log P by reversed-phase HPLC (C 18), acidic range
Type: physicochemical
Conditions: marked a): acidic range
Protocol: Temperature: 43° C. (a) Mobile phases for the determination in the acidic range: 0.1% aqueous phosphoric acid, acetonitrile; linear gradient from 10% acetonitrile to 90% acetonitrile—the corresponding measurement results are marked ^a) in Table 1.

[1] = 0.1% aqueous phosphoric acid/acetonitrile gradient, HPLC C 18, 43° C.
[2] = 0.1% aqueous phosphoric acid, acetonitrile, HPLC reversed-phase column (C 18), 43° C.

Row | SMILES | logP [1] | further results
1 | CCN(CC)C(=O)Nc1cc(C(F)(F)F)ccc1C(=O)OC [IIIa-17] | logP = 3.10^a) | –
2 | COC(=O)c1ccc(Cl)c(NC(=O)N2CCOCC2)c1Cl [IIIa-6] | logP = 1.34^a) | –
3 | CCN1CCCN(C(=O)Nc2c(Cl)ccc(C(=O)C3=C(O)CCCC3=O)c2Cl)C1=O [Example 1-23] | (I-2) logP = 2.65^a) | –
4 | O=C(Nc1nnc(C(F)(F)F)s1)Nc1c(Cl)ccc(C(=O)C2=C(O)CCCC2=O)c1Cl [Example 1-40] | (I-2) logP = 2.78^a) | –
5 | CON(C)C(=O)Nc1c(Cl)ccc(C(=O)C2=C(O)CC(C)CC2=O)c1Cl (racemic) [Example 3-1] | – | logP [2]: (I-2) logP = 2.33^a)
6 | COC(=O)c1ccc(Cl)c(NC(=O)NN(C)C)c1Cl [IIIa-7] | logP = 1.64^a) | –
7 | CC(C)N1CCCN(C(=O)Nc2c(Cl)ccc(C(=O)C3=C(O)CCCC3=O)c2Cl)C1=O [Example 1-25] | (I-2) logP = 2.98^a) | –
8 | COC(=O)c1ccc(Cl)c(NC(=O)N2CCN(C)CC2)c1Cl [IIIa-8] | logP = 0.50^a) | –
9 | CON(C)C(=O)Nc1c(Cl)ccc(C(=O)C2=C(O)CC(C)(C)CC2=O)c1Cl [Example 4-1] | – | logP [2]: (I-2) logP = 2.54^a)
10 | CON(C)C(=O)Nc1c(Cl)ccc(C(=O)C2=C(O)C3CCC(C3)C2=O)c1Cl (stereo not drawn) [Example 5-1] | – | logP (0.1% aqueous phosphoric acid/acetonitrile gradient, reversed-phase HPLC C 18, 43° C.): (I-2) logP = 2.23^a)
11 | O=C1CCCC(O)=C1C(=O)c1ccc(Cl)c(NC(=O)N2CCCN(C3CCCCC3)C2=O)c1Cl [Example 1-103] | (I-2) logP = 3.86^a) | –
12 | COC(=O)c1ccc(C(F)(F)F)cc1NC(=O)N1CCN(C)C1=O [IIIa-11] | logP = 2.76^a) | –
13 | CCN(CC)C(=O)Nc1c(Cl)ccc(C(=O)OC)c1Cl [IIIa-9] | logP = 2.02^a) | –
14 | O=C1CCCC(O)=C1C(=O)c1ccc(Cl)c(NC(=O)c2ccc(Cl)cc2)c1Cl [Example 1-150] | (I-2) logP = 2.96^a) | –
15 | COc1cc(NC(=O)N2CCN(C)C2=O)ccc1C(=O)C1=C(O)CCCC1=O [Example 1-110] | (I-3) logP = 1.93^a) | –
16 | COC(=O)c1ccc(C(F)(F)F)cc1NC(=O)N(C)OC [IIIa-10] | logP = 3.35^a) | –
17 | CON(C)C(=O)Nc1c(Cl)ccc(C(=O)C2=C(Sc3ccccc3)CCCC2=O)c1Cl [Example 1-161] | (I-2) Y = SC6H5 logP = 2.98^a) | –
18 | CN1CCN(C(=O)Nc2cc(C(F)(F)F)ccc2C(=O)C2=C(O)CCCC2=O)C1=O [Example 1-100] | (I-1) logP = 2.57^a) | –
19 | COC(=O)c1ccc(Cl)c(NC(=O)Nn2cnnc2)c1Cl [IIIa-25] | logP = 0.93^a) | –
20 | CON(C)C(=O)Nc1c(Cl)ccc(C(=O)C2=C(O)C(C)(C)CCC2=O)c1Cl [Example 2-1] | – | logP [2]: (I-2) logP = 2.61^a)
21 | CC1(C)CCC(=O)C(C(=O)c2ccc(Cl)c(NC(=O)N3CCCCO3)c2Cl)=C1O [Example 2-69] | – | logP [2]: (I-2) logP = 2.83^a)
22 | CC1CC(=O)C(C(=O)c2ccc(Cl)c(NC(=O)N3CCCO3)c2Cl)=C(O)C1 (racemic) [Example 3-61] | – | logP [2]: (I-2) logP = 2.25^a)
23 | CN1CCN(C(=O)N(C)c2cc(C(F)(F)F)ccc2C(=O)C2=C(O)CCCC2=O)C1=O [Example 1-104] | (I-1) logP = 2.04^a) | –
24 | CC1CC(=O)C(C(=O)c2ccc(Cl)c(NC(=O)N3CCCCO3)c2Cl)=C(O)C1 (racemic) [Example 3-69] | – | logP [2]: (I-2) logP = 2.52^a)
25 | CC1(C)CCC(=O)C(C(=O)c2ccc(Cl)c(NC(=O)N3CCCO3)c2Cl)=C1O [Example 2-61] | – | logP [2]: (I-2) logP = 2.57^a)
26 | CC1(C)CC(=O)C(C(=O)c2ccc(Cl)c(NC(=O)N3CCCCO3)c2Cl)=C(O)C1 [Example 4-69] | – | logP [2]: (I-2) logP = 2.76^a)

Now from value to compound, other results behind:

Row | logP [1] | SMILES | further results
27 | (I-2) logP = 2.49^a) | CCN(C(=O)Nc1c(Cl)ccc(C(=O)C2=C(O)CCCC2=O)c1Cl)C(C)C [Example 1-169] | –
28 | (I-2) logP = 1.98^a) | CCCNC(=O)Nc1c(Cl)ccc(C(=O)C2=C(O)CCCC2=O)c1Cl [Example 1-107] | –
29 | (I-2) logP = 1.70^a) | CCNC(=O)Nc1c(Cl)ccc(C(=O)C2=C(O)CCCC2=O)c1Cl [Example 1-9] | –
30 | (I-2) logP = 2.52^a) | O=C(Nc1c(Cl)ccc(C(=O)C2=C(O)CCCC2=O)c1Cl)NN1CCCCC1 [Example 1-160] | –
31 | (I-2) logP = 1.96^a) | Cn1ccsc1=NC(=O)Nc1c(Cl)ccc(C(=O)C2=C(O)CCCC2=O)c1Cl [Example 1-162] | –
32 | (I-2) logP = 1.29^a) | NC(=O)Nc1c(Cl)ccc(C(=O)C2=C(O)CCCC2=O)c1Cl [Example 1-106] | –
33 | (I-2) logP = 2.95^a) | CCCN(CCC)C(=O)Nc1c(Cl)ccc(C(=O)C2=C(O)CCCC2=O)c1Cl [Example 1-109] | –
34 | (I-2) logP = 2.08^a) | O=C1CCCC(O)=C1C(=O)c1ccc(Cl)c(NC(=O)c2ccco2)c1Cl [Example 1-147] | –
35 | (I-2) logP = 2.37^a) | O=C(NCc1ccccc1)Nc1c(Cl)ccc(C(=O)C2=C(O)CCCC2=O)c1Cl [Example 1-142] | –
36 | (I-2) logP = 2.21^a) | CCN(CC)C(=O)Nc1c(Cl)ccc(C(=O)C2=C(O)CCCC2=O)c1Cl [Example 1-7] | –
37 | (I-2) logP = 1.88^a) | CCONC(=O)Nc1c(Cl)ccc(C(=O)C2=C(O)CCCC2=O)c1Cl [Example 1-136] | –
38 | (I-2) logP = 2.40^a) | COCCN(CCOC)C(=O)Nc1c(Cl)ccc(C(=O)C2=C(O)CCCC2=O)c1Cl [Example 1-134] | –
39 | (I-2) logP = 1.64^a) | CN(C)C(=O)Nc1c(Cl)ccc(C(=O)C2=C(O)CCCC2=O)c1Cl [Example 1-10] | –
40 | (I-2) logP = 1.46^a) | CNC(=O)Nc1c(Cl)ccc(C(=O)C2=C(O)CCCC2=O)c1Cl [Example 1-8] | –
41 | (I-2) logP = 1.93^a) | O=C1CCCC(O)=C1C(=O)c1ccc(Cl)c(NC(=O)N2CCCO2)c1Cl [Example 1-151] | –
42 | (I-2) logP = 1.58^a) | CONC(=O)Nc1c(Cl)ccc(C(=O)C2=C(O)CCCC2=O)c1Cl [Example 1-108] | –
43 | (I-2) logP = 2.04^a) | COCCN(C)C(=O)Nc1c(Cl)ccc(C(=O)C2=C(O)CCCC2=O)c1Cl [Example 1-132] | –
44 | (I-2) logP = 2.34^a) | O=C1CCCC(O)=C1C(=O)c1ccc(Cl)c(NC(=O)c2cccs2)c1Cl [Example 1-111] | –
45 | (I-2) logP = 2.30^a) | CCON(C)C(=O)Nc1c(Cl)ccc(C(=O)C2=C(O)CCCC2=O)c1Cl [Example 1-167] | –
46 | (I-2) logP = 2.56^a) | CCCN(CC)C(=O)Nc1c(Cl)ccc(C(=O)C2=C(O)CCCC2=O)c1Cl [Example 1-165] | –
47 | (I-2) logP = 2.17^a) | O=C1CCCC(O)=C1C(=O)c1ccc(Cl)c(NC(=O)N2CCCCO2)c1Cl [Example 1-164] | –
48 | (I-2) logP = 1.94^a) | O=C(Nc1c(Cl)ccc(C(=O)C2=C(O)CCCC2=O)c1Cl)NN1CCCC1 [Example 1-101] | –
49 | (I-2) logP = 2.26^a) | O=C1CCCC(O)=C1C(=O)c1ccc(Cl)c(NC(=O)N2CCCCC2)c1Cl [Example 1-105] | –
50 | (I-2) logP = 2.22^a) | CCCN(C)C(=O)Nc1c(Cl)ccc(C(=O)C2=C(O)CCCC2=O)c1Cl [Example 1-173] | –
51 | (I-2) logP = 2.41^a) | CC(C)(C)NC(=O)Nc1c(Cl)ccc(C(=O)C2=C(O)CCCC2=O)c1Cl [Example 1-168] | –
52 | (I-2) logP = 1.72^a) | COC(CNC(=O)Nc1c(Cl)ccc(C(=O)C2=C(O)CCCC2=O)c1Cl)OC [Example 1-35] | –
53 | (I-2) logP = 1.99^a) | CC(C)NC(=O)Nc1c(Cl)ccc(C(=O)C2=C(O)CCCC2=O)c1Cl [Example 1-12] | –
54 | (I-2) logP = 1.91^a) | CCN(C)C(=O)Nc1c(Cl)ccc(C(=O)C2=C(O)CCCC2=O)c1Cl [Example 1-170] | –
